# Data reported in PubChem BioAssay (NCI).
#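 Briefly, cells in 96-well plates were exposed to five compound concentrations for 48 h, and endpoints were estimated by linear interpolation. GI50 = concentration required for 50% inhibition of growth. TGI: total growth inhibition.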
# What was measured:
# Assay in all cases: inhibition of tumour cell growth, NCI panel, 48 h
# HCT-116 colon = system: HCT-116 colon
# MDA-MB-435 = system: MDA-MB-435
# M14 melanoma = system: M14 melanoma
# SNB-19 CNS = system: SNB-19 CNS
# HT29 colon = system: HT29 colon
# A549 NSCLC = system: A549 NSCLC
# OVCAR-4 ovarian = system: OVCAR-4 ovarian
# MALME-3M melanoma = system: MALME-3M melanoma
# NCI-H522 lung = system: NCI-H522 lung
# BT-549 breast = system: BT-549 breast
# HL-60(TB) leukemia = system: HL-60(TB) leukemia
# HOP-92 NSCLC = system: HOP-92 NSCLC
# SK-OV-3 ovarian = system: SK-OV-3 ovarian
# ACHN renal = system: ACHN renal
# SW-620 colon = system: SW-620 colon
# OVCAR-3 ovarian = system: OVCAR-3 ovarian
# UACC-62 melanoma = system: UACC-62 melanoma
# U251 CNS = system: U251 CNS
# CCRF-CEM leukemia = system: CCRF-CEM leukemia
# MDA-MB-231 breast = system: MDA-MB-231 breast
# PC-3 prostate = system: PC-3 prostate
# DU-145 prostate = system: DU-145 prostate
# KM12 colon = system: KM12 colon
# MOLT-4 leukemia = system: MOLT-4 leukemia
# COLO 205 colon = system: COLO 205 colon
# 786-0 renal = system: 786-0 renal
# OVCAR-8 ovarian = system: OVCAR-8 ovarian
# SF-268 CNS = system: SF-268 CNS
# NCI-H460 lung = system: NCI-H460 lung
# NCI/ADR-RES ovarian = system: NCI/ADR-RES ovarian
# UACC-257 melanoma = system: UACC-257 melanoma
# UO-31 renal = system: UO-31 renal
# SR leukemia = system: SR leukemia
# OVCAR-5 ovarian = system: OVCAR-5 ovarian
# SF-295 CNS = system: SF-295 CNS
# NCI-H23 lung = system: NCI-H23 lung
# TK-10 renal = system: TK-10 renal
# HS 578T breast = system: HS 578T breast
# MCF7 breast = system: MCF7 breast
# HCT-15 colon = system: HCT-15 colon
# K-562 leukemia = system: K-562 leukemia
# RXF 393 renal = system: RXF 393 renal
# A498 renal = system: A498 renal
# SK-MEL-5 melanoma = system: SK-MEL-5 melanoma
# NCI-H226 lung = system: NCI-H226 lung
# HOP-62 NSCLC = system: HOP-62 NSCLC
# CAKI-1 renal = system: CAKI-1 renal
# SF-539 CNS = system: SF-539 CNS
# LOX IMVI melanoma = system: LOX IMVI melanoma
# HCC-2998 colon = system: HCC-2998 colon
# IGROV1 ovarian = system: IGROV1 ovarian
# SN12C renal = system: SN12C renal
# RPMI-8226 leukemia = system: RPMI-8226 leukemia
smiles,measurement,setting,value
N#CC1=C(N)Oc2c(ccc3ccccc23)C1c1cccs1 (stereo unspecified),GI50,HCT-116 colon,50.2 nM
same,TGI,HCT-116 colon,1830 nM
same,GI50,MDA-MB-435,16.8 nM
same,TGI,MDA-MB-435,42 nM
same,GI50,M14 melanoma,40.5 nM
same,TGI,M14 melanoma,11900 nM
same,GI50,SNB-19 CNS,321 nM
same,TGI,SNB-19 CNS,20700 nM
same,GI50,HT29 colon,53.6 nM
same,TGI,HT29 colon,1120 nM
same,GI50,A549 NSCLC,61.5 nM
same,TGI,A549 NSCLC,14000 nM
same,GI50,OVCAR-4 ovarian,430 nM
same,TGI,OVCAR-4 ovarian,18700 nM
same,GI50,MALME-3M melanoma,38 nM
same,TGI,MALME-3M melanoma,24300 nM
same,GI50,NCI-H522 lung,18.5 nM
same,TGI,NCI-H522 lung,84.6 nM
same,GI50,BT-549 breast,68.8 nM
same,TGI,BT-549 breast,3090 nM
same,GI50,HL-60(TB) leukemia,28.3 nM
same,TGI,HL-60(TB) leukemia,79.3 nM
same,GI50,HOP-92 NSCLC,57.3 nM
same,TGI,HOP-92 NSCLC,14100 nM
same,GI50,SK-OV-3 ovarian,56.5 nM
same,TGI,SK-OV-3 ovarian,14700 nM
same,GI50,ACHN renal,84 nM
same,TGI,ACHN renal,14800 nM
same,GI50,SW-620 colon,36.6 nM
same,TGI,SW-620 colon,15200 nM
same,GI50,OVCAR-3 ovarian,26.9 nM
same,TGI,OVCAR-3 ovarian,70.4 nM
same,GI50,UACC-62 melanoma,64.7 nM
same,TGI,UACC-62 melanoma,15200 nM
same,GI50,U251 CNS,40.7 nM
same,TGI,U251 CNS,11300 nM
same,GI50,CCRF-CEM leukemia,33.7 nM
same,TGI,CCRF-CEM leukemia,11400 nM
same,GI50,MDA-MB-231 breast,140 nM
same,TGI,MDA-MB-231 breast,2720 nM
same,GI50,PC-3 prostate,41 nM
same,TGI,PC-3 prostate,15000 nM
same,GI50,DU-145 prostate,46.3 nM
same,TGI,DU-145 prostate,1030 nM
same,GI50,KM12 colon,43.4 nM
same,TGI,KM12 colon,3450 nM
same,GI50,MOLT-4 leukemia,59.4 nM
same,TGI,MOLT-4 leukemia,14600 nM
same,GI50,COLO 205 colon,71.6 nM
same,TGI,COLO 205 colon,591 nM
same,GI50,786-0 renal,57.7 nM
same,TGI,786-0 renal,11500 nM
same,GI50,OVCAR-8 ovarian,55 nM
same,TGI,OVCAR-8 ovarian,12100 nM
same,GI50,SF-268 CNS,80.7 nM
same,TGI,SF-268 CNS,10100 nM
same,GI50,NCI-H460 lung,36 nM
same,TGI,NCI-H460 lung,662 nM
same,GI50,NCI/ADR-RES ovarian,36.8 nM
same,TGI,NCI/ADR-RES ovarian,6070 nM
same,GI50,UACC-257 melanoma,51.4 nM
same,TGI,UACC-257 melanoma,22200 nM
same,GI50,UO-31 renal,69.6 nM
same,TGI,UO-31 renal,17500 nM
same,GI50,SR leukemia,33.7 nM
same,TGI,SR leukemia,7810 nM
same,GI50,OVCAR-5 ovarian,129 nM
same,TGI,OVCAR-5 ovarian,16500 nM
same,GI50,SF-295 CNS,51.1 nM
same,TGI,SF-295 CNS,17000 nM
same,GI50,NCI-H23 lung,62.8 nM
same,TGI,NCI-H23 lung,12700 nM
same,GI50,TK-10 renal,66.9 nM
same,TGI,TK-10 renal,20200 nM
same,GI50,HS 578T breast,30.2 nM
same,TGI,HS 578T breast,14100 nM
same,GI50,MCF7 breast,35.4 nM
same,TGI,MCF7 breast,13900 nM
same,GI50,HCT-15 colon,44.2 nM
same,TGI,HCT-15 colon,10900 nM
same,GI50,K-562 leukemia,32.1 nM
same,TGI,K-562 leukemia,12000 nM
same,GI50,RXF 393 renal,31.3 nM
same,TGI,RXF 393 renal,21800 nM
same,GI50,A498 renal,23.2 nM
same,TGI,A498 renal,84.3 nM
same,GI50,SK-MEL-5 melanoma,42.7 nM
same,TGI,SK-MEL-5 melanoma,5200 nM
same,GI50,NCI-H226 lung,1060 nM
same,TGI,NCI-H226 lung,19000 nM
same,GI50,HOP-62 NSCLC,58.3 nM
same,TGI,HOP-62 NSCLC,18500 nM
same,GI50,CAKI-1 renal,46.5 nM
same,TGI,CAKI-1 renal,16100 nM
same,GI50,SF-539 CNS,26 nM
same,TGI,SF-539 CNS,69.6 nM
same,GI50,LOX IMVI melanoma,79.8 nM
same,TGI,LOX IMVI melanoma,14000 nM
same,GI50,HCC-2998 colon,132 nM
same,TGI,HCC-2998 colon,3890 nM
same,GI50,IGROV1 ovarian,82.5 nM
same,TGI,IGROV1 ovarian,15800 nM
same,GI50,SN12C renal,81.6 nM
same,TGI,SN12C renal,12900 nM
same,GI50,RPMI-8226 leukemia,32.9 nM
same,TGI,RPMI-8226 leukemia,3600 nM
